In ChEMBL document CHEMBL1157539, “Thousands of chemical starting points for antimalarial lead identification” (Nature, 2010):

Each molecule was assayed on Plasmodium falciparum (assay: GSK_TCMDC: Inhibition of Plasmodium falciparum 3D7 in whole erythrocytes, using parasite LDH activity as an index of growth.). Settings: Plasmodium falciparum, 3D7.
Assay type: functional, organism-based
Work on O=C(Nc1ccc(N2CCN(C(=O)/C=C/c3ccccc3)CC2)c(Cl)c1)c1ccc([N+](=O)[O-])o1 yielded an XC50 of 0.859 µM.
CC(C)c1cc2c(ccc3nc(N)nc(N)c32)[nH]1 was tested, and the XC50 was 0.039 µM.
Molecule COc1ccc(Oc2cnc(N)nc2N)c(C(C)C)c1 has an XC50 of 0.74 µM.
Work on Cc1cc(NCCC(=O)NCCOc2ccccc2)nc(NCc2ccccc2C)n1 yielded an XC50 of 0.867 µM.
For CN1CCN(CC(=O)Nc2cccc(-c3ccc(-c4nc5cc(F)ccc5[nH]4)cc3)c2)CC1, the XC50 was 0.703 µM.
CNCCNCc1cccc(-c2cccc(-c3nc4cc(C(F)(F)F)ccc4[nH]3)c2)c1 showed an XC50 of 0.203 µM.
With O=C(Nc1ccc(Cn2nc(Cl)c(N3CCCNCC3)cc2=O)cc1)c1ccc(-c2ccccc2)cc1 the XC50 was 0.713 µM.
Work on COc1ccc(C=NNc2nc(O)cc(-c3ccccc3)n2)cc1OC yielded an XC50 of 0.595 µM.
Molecule CN(C)CCOc1cc(NC(=O)Nc2cccc3c(-c4ccncc4)cccc23)ccc1I has an XC50 of 0.734 µM.
For COc1cc(C)nc2ccc(NC(=O)c3ccc(C(=O)Nc4ccc5nc(C)cc(OC)c5c4)cc3)cc12, the XC50 was 0.0633 µM.
With CC(C)CNC(=O)c1cncc(-c2ccc(CNCCCc3ccccc3)cc2)c1 the XC50 was 0.77 µM.
Molecule FC(F)(F)c1ccc2c(NCCCNc3ccnc4cc(C(F)(F)F)ccc34)ccnc2c1 has an XC50 of 0.0315 µM.
Molecule CCC1=C[C@@H]2CN(C1)Cc1c([nH]c3ccccc13)[C@@](C(=O)OC)(c1cc3c(cc1OC)N(C)[C@H]1[C@@](O)(C(=O)OC)[C@H](O)[C@]4(CC)C=CCN5CC[C@]31[C@@H]54)C2 has an XC50 of 0.866 µM.
CC(CN1CCN(C)CC1)C(=O)Nc1ccc(-c2cccc(-c3nc4ccccc4[nH]3)c2)cc1 (configuration not stated) gave an XC50 of 0.566 µM.
COc1cc(NC2CCCC(NCc3cn(S(=O)(=O)c4ccccc4)c4ccccc34)C2)nc2ccccc12 (configuration not stated) gave an XC50 of 0.248 µM.
CCc1ccc(NC(=O)c2ccc(CN3CCCN(Cc4cccc(O)c4)CC3)cc2)cc1 was tested, and the XC50 was 0.673 µM.
For CCc1sc(-c2cc(Cl)ccc2OC)nc1C(=O)NCCN1CCCCC1, the XC50 was 0.938 µM.
COc1ccc(S(=O)(=O)Nc2cc(Br)cc3c2OCCC3)cc1N1CCN(C(=O)C(Cl)(Cl)Cl)CC1 was tested, and the XC50 was 0.871 µM.
For CCNc1cc(C(=O)N[C@@H](Cc2ccccc2)[C@H](O)CNC(C)(C)Cc2cccc(Cl)c2)cc(N2CCCCS2(=O)=O)c1, the XC50 was 0.887 µM.
For COc1ccc(OCCCON)cc1, the XC50 was 0.167 µM.
Cc1nc(-c2ccc(-c3ccc(NC(=O)c4coc5ccc(N6CC(C)NC(C)C6)cc45)cc3)c(C)c2)no1 (configuration not stated) was tested, and the XC50 was 0.925 µM.
Molecule COc1cccc2c(NN=Cc3ccccc3Cl)cc(C)nc12 has an XC50 of 0.211 µM.
CCc1ccc(CN2CCC(CNC(=O)c3cc(-c4ccccc4F)cs3)C2)cc1 (configuration not stated) was tested, and the XC50 was 0.899 µM.
For O=C(Nc1ccc(-c2ccccc2)cc1)Nc1cccc(Cn2ncc(N3CCNCC3)c(Cl)c2=O)c1, the XC50 was 0.456 µM.
N#Cc1ccc(N2CCN(C(=O)c3cccc(-c4noc(C(F)(F)F)n4)c3)CC2)nc1 gave an XC50 of 0.22 µM.
Molecule O=C(Nc1ccc2c(c1)CCN2C1CCN(Cc2cc(F)cc(F)c2F)C1)c1ccco1 (configuration not stated) has an XC50 of 0.59 µM.
O=C(/C=C/c1ccc(C(F)(F)F)cc1)N1CCc2cc3nccc(N4CCN5CCC[C@H]5C4)c3cc21 showed an XC50 of 1.51 µM.
Cc1cc(CN2CC[C@H](NC(=O)c3ccc(Cl)c(Cl)c3)C2)ccc1OC1CCN(C)C1 (some centres not stated) was tested, and the XC50 was 0.947 µM.
With Cc1cccc2nc(-c3ccc(-c4ccc(CN5CCC(N)C5)cc4)s3)[nH]c12 (configuration not stated) the XC50 was 0.373 µM.
Molecule Cc1ccc(NC(=O)c2cccc(C#N)c2)cc1-c1ccc(C(=O)Nc2ccncc2)cc1 has an XC50 of 0.688 µM.
CN(c1cc(NC(=O)c2cccs2)ccn1)C1CCN(Cc2cccc(F)c2)CC1 was tested, and the XC50 was 0.676 µM.
For O=C(c1cccc(Cl)c1)N1CCN(c2ccc([N+](=O)[O-])c(NC3CC3)c2)CC1, the XC50 was 0.867 µM.
O=C(/C=C/c1ccc(Cl)c(Cl)c1)NCC1CCCC(CN2CCC(c3c[nH]c4ccccc34)CC2)C1 (configuration not stated) gave an XC50 of 0.726 µM.
Work on COc1ccc(NC(=O)[C@H](CC(C)C)Nc2ccnc(NCCc3ccc(F)cc3)n2)cc1 yielded an XC50 of 1.6 µM.
With CCNc1cc(C(=O)N[C@@H](Cc2ccc(F)c(F)c2)[C@H](O)CNC2CCCCC2)cc(N2CCCCS2(=O)=O)c1 the XC50 was 0.117 µM.
With COc1cc2nc(NCCc3ccccc3)nc(NCc3nccs3)c2cc1OC the XC50 was 0.532 µM.
With COc1ccc2nccc([C@@H](O)CN3CCC(NCc4nc5c(cc4F)SCC(=O)N5)C(F)C3)c2c1 (some centres not stated) the XC50 was 0.725 µM.
For Cc1cccc2nc(-c3cccc(-c4ccc(NC(=O)C5CCCO5)cc4)c3)[nH]c12 (configuration not stated), the XC50 was 0.901 µM.
Molecule O=C(N[C@@H](Cc1ccccc1)C(=O)NCc1cccc2ccccc12)c1ccc(O)c(-c2ccc(Cl)c(Cl)c2)c1 has an XC50 of 0.236 µM.
With CCc1cc(N2CCN(c3ccccc3F)CC2)nc(SCc2ccc(C(=O)NC3CC3)o2)n1 the XC50 was 0.892 µM.
Work on COc1ccc2c(NN=Cc3ccncc3)ccnc2c1 yielded an XC50 of 0.956 µM.
COc1ccc2[nH]ccc(=NN=CC=Cc3ccccc3)c2c1 gave an XC50 of 0.743 µM.
Cc1nc2cc(/C=C/C(=O)NC3CCC(CCN4CCc5ccc(C#N)cc5CC4)CC3)ccc2[nH]1 (configuration not stated) showed an XC50 of 1.14 µM.
In the case of O=C(Nc1cccc(-c2nn3ccccc3c2-c2ccnc(Nc3cccc(-c4cnco4)c3)n2)c1)C1CCCCC1, the XC50 is reported as 0.261 µM.
With CCCN(CCCCCCN(CCC)CCc1ccc(O)c(O)c1)CCc1ccc(O)cc1 the XC50 was 1.01 µM.
With COc1ccnc(NCCCNCc2cn(S(=O)(=O)c3ccccc3)c3ccccc23)c1 the XC50 was 0.79 µM.
Molecule Cc1cc(N(C)C)nc(Nc2ccc(NC(=O)c3ccccc3F)cc2)n1 has an XC50 of 1.16 µM.
For COc1ccc(-c2nc(NC(=O)CSc3ccc([N+](=O)[O-])cc3)sc2C)cc1, the XC50 was 0.136 µM.
With NC1CCCN(Cc2cccc(-c3cccc(-c4nc5ccccc5[nH]4)c3)c2)C1 (configuration not stated) the XC50 was 0.637 µM.
With CC(C)c1ccc(CN2CCC(CNC(=O)c3cc(-c4ccc(N(C)C)cc4)cs3)C2)cc1 (configuration not stated) the XC50 was 1.25 µM.
CC(C)C[C@H](Nc1ccc(C#N)c2ccccc12)C(=O)NC(C)(C)C12CC3CC(CC(C3)C1)C2 was tested, and the XC50 was 0.916 µM.
For Cc1nnc2c(NC(=O)NC(C)C)cc3cc(-c4ccc(CN5CCCCC5)cc4)ccc3n12, the XC50 was 1.18 µM.
Cc1ccc(Cn2nc(Cl)c(N3CCNCC3)cc2=O)cc1NC(=O)Nc1ccc(-c2ccccc2)cc1 showed an XC50 of 0.675 µM.
In the case of CCOP(=O)(OCC)c1ccc(OC)c(-c2ccc[nH]2)c1, the XC50 is reported as 1.19 µM.
COc1ccc(CNC2CCN(C)CC2)cc1-c1ccc(S(=O)(=O)NC2CCC2)s1 was tested, and the XC50 was 0.733 µM.
Work on Cc1cc(N)c2cc(NC(=O)c3ccc4ccccc4c3)ccc2n1 yielded an XC50 of 0.254 µM.
Molecule Cc1cc(CN2CC[C@H](NC(=O)c3ccc(Cl)c(Cl)c3)C2)ccc1OCCCN(C)C has an XC50 of 0.842 µM.
Molecule CCCCCCCc1c(C)[nH]c2ccc(F)cc2c1=O has an XC50 of 0.289 µM.
Cn1c2ccccc2c2c3ccccc3c(CNC(CO)(CO)CO)cc21 gave an XC50 of 0.518 µM.
O=C(Nc1cccnc1)c1cn(-c2ccccc2)nc1-c1cccs1 gave an XC50 of 0.869 µM.
CC(C)CN1CCCN(Cc2cccc(NC(=O)c3ccc(Cl)c(Cl)c3)c2)CC1 showed an XC50 of 0.893 µM.
COc1ccc2nccc([C@@H](O)CN3CCC(NC(=O)c4cc5ccccc5[nH]4)CC3)c2c1 gave an XC50 of 0.969 µM.
For COc1cccc(CNC(=O)c2cccc(-c3cccc(CN4CCC(N5CCCC5)CC4)c3)n2)c1, the XC50 was 1.03 µM.
Cc1ccc(Nc2nc(C)cc(Nc3cccc(NS(C)(=O)=O)c3)n2)cc1 showed an XC50 of 0.917 µM.
O=C(Nc1ccc(-c2ccccc2)cc1)Nc1ccc2c(c1)CCNCC2 showed an XC50 of 0.348 µM.
Molecule O=C(/C=C/c1ccc(Cl)c(Cl)c1)NCc1ccc(CN2CCC(c3c[nH]c4ccccc34)CC2)cc1 has an XC50 of 0.711 µM.
COc1ccc2nccc(N3CCC(SCCNCc4cc5c(cn4)OCCO5)C3)c2n1 (configuration not stated) gave an XC50 of 0.768 µM.
FC(F)(F)c1ccc2c(C=Cc3ccncc3)c[nH]c2c1 gave an XC50 of 0.707 µM.
With COc1cc(Nc2ccnc3ccc(C(F)(F)F)cc23)ccc1OCCCc1ccccc1 the XC50 was 0.765 µM.
Cc1cccc2nc(-c3ccc(-c4ccc(CN5CCCC(O)C5)cc4)s3)[nH]c12 (configuration not stated) gave an XC50 of 0.83 µM.
CN1CC=C(c2c[nH]c3ccc(OC(=O)c4ccccc4)cc23)C1 was tested, and the XC50 was 0.8 µM.
With COc1ccc(Oc2ccccc2CNCC2CCN(CC3CCCCC3)CC2)cc1 the XC50 was 0.904 µM.
For O=S(=O)(Nc1ccc2nccc(N3CCNCC3)c2c1)c1ccc2c(Cl)cccc2c1, the XC50 was 0.573 µM.
Work on O=C(COc1ccccc1)NC1CCN(c2ccnc3cc(Cl)ccc23)C1 (configuration not stated) yielded an XC50 of 0.698 µM.
Work on CCCc1cc(Cc2cnc(N)nc2N)cc(CCC)c1OCCCCC(=O)O yielded an XC50 of 0.195 µM.
CN1Cc2ccc(NS(=O)(=O)c3ccc(-c4ccoc4)cc3)cc2C1 showed an XC50 of 0.16 µM.
N=C(N)Nc1nc(-c2cccc(NC(=O)NCCc3c[nH]c4ccc(OCc5ccccc5)cc34)c2)cs1 showed an XC50 of 0.805 µM.
With CC(=O)c1ccc2cc(C(=O)NC3CCC(CCN4CCc5ccc(-c6noc(C)n6)cc5CC4)CC3)[nH]c2c1 (configuration not stated) the XC50 was 0.946 µM.
With CC[C@H](C)CNC(=O)c1cncc(-c2cccc(CN(C)C3CCN(C)CC3)c2)c1 the XC50 was 0.785 µM.
With CCCn1c(O)nnc1SCC(=O)Nc1cc(Cl)ccc1Cl the XC50 was 0.997 µM.
CCCCCCCN(CCCCCCC)CCNc1cc(C)nc2ccccc12 gave an XC50 of 0.339 µM.
Molecule CCOC(=O)COc1cccc(CNc2ccc3nc(N)nc(N)c3c2)c1 has an XC50 of 0.408 µM.
With Cc1cnc(NCCc2ccc(F)cc2)nc1N[C@@H](CC(C)C)C(=O)Nc1ccccc1 the XC50 was 0.97 µM.
In the case of Cc1ccc2[nH]c3c(c2c1)CC(C(=O)NCCC(C)C)NC31CCN(Cc2ccccc2)CC1 (configuration not stated), the XC50 is reported as 0.932 µM.
Cc1cc(-c2cccc3c(NC(=O)N4CCc5cc6nccc(N7CCN8CCC[C@H]8C7)c6cc54)cccc23)cc(C)n1 was tested, and the XC50 was 0.485 µM.
Molecule CC(Oc1ccc(Cl)cc1)C(=O)N(C)C1CCN(CCCCCNC(=O)/C=C/c2ccc(Cl)c(Cl)c2)CC1 (configuration not stated) has an XC50 of 0.959 µM.
In the case of Fc1cc(Cl)ccc1Nc1ccnc2cc(-c3ccc(CN4CCSCC4)o3)ccc12, the XC50 is reported as 0.782 µM.
Molecule CCc1nnc2sc(-c3cccc(NC(=O)c4ccc(C)c([N+](=O)[O-])c4)c3)nn12 has an XC50 of 1.41 µM.
For Cc1nccn1Cc1cc(C(C)(C)C)c(O)c(C(C)(C)C)c1, the XC50 was 0.788 µM.
For NC1=NC(Cc2ccccc2)(c2ccncc2)C(=O)N1CCCc1ccccc1 (configuration not stated), the XC50 was 0.936 µM.
With Cc1cc(NC(=O)c2ccsc2)ccc1OC1CCN(Cc2ccc(F)cc2)CC1 the XC50 was 1.22 µM.
Molecule CCCN(Cc1nnc(-c2cccs2)o1)C(=O)C1COc2ccccc2O1 (configuration not stated) has an XC50 of 0.85 µM.
For COc1ccc2nccc([C@@H](O)CN3CCC(NCc4cc5c(F)ccc(F)c5[nH]4)CC3)c2c1, the XC50 was 0.144 µM.
For COc1ccc2ncc(F)c(CCN3CC[C@H](NCc4cc(C#N)c5c(c4)OCCO5)[C@H](O)C3)c2c1, the XC50 was 0.885 µM.
Cc1ccnc2nc(C(=O)Nc3cc(C(F)(F)F)ccc3N3CCCCC3)nn12 gave an XC50 of 0.0618 µM.
CC(C)c1ccc(CN2CCC(CNC(=O)c3cc(-c4cccc(C(F)(F)F)c4)cs3)C2)cc1 (configuration not stated) showed an XC50 of 0.914 µM.
In the case of COc1ccccc1CN1CCC(NC(=O)c2ccc(-c3cccc(Cl)c3)s2)CC1, the XC50 is reported as 1.42 µM.
